{
  "source": "patent US20230233483A1",
  "about": "“COMPOUND AND METHOD FOR THE TREATMENT OF CORONAVIRUSES” (Apteeus, priority 2020, published 2023)",
  "key": {"SARS-CoV-2 [1]": {"tested_on": "SARS-CoV-2", "assay_type": "in vivo, K18-human ACE2 expressing C57BL/6 mice", "details": "i.p. 62.5 mg/kg 1 h and 8 h after inoculation and twice daily at day 1; day 2 post-infection"}, "[2]": {"assay": "Pharmacokinetics in C57BL/6J mice, plasma and lung concentration", "assay_type": "in vivo", "details": "i.p. 62.5 mg/kg single dose or twice daily for two days", "method": "Clofoctol diluted in 1.75% final Kolliphor® RH40 (07076, Sigma) and 1.4% final ethanol in a sodium chloride solution was used for intraperitoneal injection. Female 8-10 week-old C57BL/6J mice were treated i.p. with a single dose of clofoctol (62.5 mg/kg) and were sacrificed at different time points thereafter (FIG. 9, left panel). In a separate experiment, the mice were treated i.p. twice daily with a dose of clofoctol (62.5 mg/kg) for two days, and the mice were sacrificed 1 h after the last injection (FIG. 9, right panel). The concentration of clofoctol in the plasma and lung of treated mice was measured as follows: plasma samples and lung tissues were collected and treated with absolute ethanol, in a ratio of 1 to 10 and 1 to 50, respectively. Lung tissues were homogenized with a mechanical lysis system (Tissue Lyzer II). Supernatants were obtained by centrifugation before injection in LC-MS/MS. Samples were analysed using UPLC system Acquity I Class (Waters), combined with a triple quadrupole mass spectrometer Xevo TQD (Waters). The column, placed at 40° C., was an Acquity BEH C8 50*2.1 mm, 1.7 µm column (Waters) and the following mobile phases were used: 5 mM ammonium formate pH 3.75 in water, as solvent (A) and 5 mM ammonium formate pH 3.75 in acetonitrile as solvent (B). […]"}, "hSARS-CoV-2": {"tested_on": "hSARS-CoV-2", "assay": "Infected human bronchial epithelia (MucilAir), secreted virus and viral RNA", "assay_type": "cell-based, SARS-CoV-2", "details": "apical administration, MOI 0.2, 72 hours", "method": "Human bronchial epithelia (MucilAir™, available from the company Epithelix) were treated through apical administration of clofoctol. The epithelia were first washed with Mucilair® culture medium containing different concentrations of clofoctol prior to infection by hSARS-CoV-2 at MOI 0.2 for 1 hour, still in the presence of clofoctol. Then, the inoculum was removed and epithelia were washed with PBS before addition at the apical pole of 25 µl of Mucilair® culture medium containing different concentrations of clofoctol. After 72 hours of incubation at 37° C., 200 µl of MucilAir™ culture medium was added at the apical pole of the epithelia and harvested, after incubating for 5 minutes. These supernatants were used to quantify the amount of secreted virus as assessed by TCID50. The results are shown in FIG. 15 in which the dotted line represents the limit of detection […]. In addition, total RNAs were extracted by using the Nucleospin RNA kit (Macherey-Nagel) prior to genome quantification by RT-qPCR. The data in both FIGS. 15 and 16 represent the average and standard-deviation of technical triplicates (n=3)."}, "SARS-CoV-2 [3]": {"tested_on": "SARS-CoV-2", "assay_type": "cell-based", "details": "Vero-81 and Vero-81-TMPRSS2 cells, MOI 0.25, treatment after 1 h infection, 16 h"}, "[4]": {"details": "read-out: Cmax in human lung tissue; patients undergoing pulmonary resection or pneumonectomy, clofoctol administered before or during surgery; cited from earlier work"}, "hSARS-CoV2 [5]": {"tested_on": "hSARS-CoV2", "assay": "Cytopathic effect and cell growth in Vero81 cells infected with hSARS-CoV2", "assay_type": "cell-based, SARS-CoV-2", "details": "MOI 0.01, 72 hours", "method": "Vero cells [ATCC® CCL-81™, ECACC, Sigma-Aldrich, France, hereafter “Vero81” cells] were cultured in Dulbecco’s modified Eagle medium (DMEM) supplemented with 10% fetal bovine serum (FBS) and GlutaMAX™ in a humidified atmosphere of 5% CO2 at 37° C.\nTested compound: solutions of the clofoctol were prepared in DMSO at concentrations required to achieve the desired concentrations in the experiment. Solutions were dispensed onto the living cells. The maximum concentration of DMSO was 0.15%.\nCell infection: cells were infected after addition of clofoctol at various concentrations or control solvents. The multiple of infection was 0.01. […]\nThe effect of clofoctol on Vero81 cells infected with hSARS-CoV2 was assessed by adding a range of concentrations of clofoctol, following 1:3 dilutions, prior to infection with hSARS-CoV2 at MOI 0.01 (Multiple Of Infection (MOI) 0.01 means that the amount of virus used is 0.01 per 1 cell) for 72 hours. […]\n(§1) The results were obtained by analyzing the percentage of PI-positive nuclei expressed as the percentage of CPE relative to a scale defined by positive (0% infected cells) and negative (100% infected cells) controls. […]\nThe effect of clofoctol on Vero81 cells infected with hSARS-CoV2 was assessed by adding a range of concentrations of clofoctol, following 1:3 dilutions, prior to infection with hSARS-CoV2 at MOI 0.01 for 72 hours. […]"}, "SARS-CoV-2 [6]": {"tested_on": "SARS-CoV-2", "assay_type": "cell-based", "details": "Calu-3 cells, MOI 0.25, 24 h"}, "HCoV-229E-Rluc": {"tested_on": "HCoV-229E-Rluc", "assay_type": "cell-based", "details": "Huh-7 cells, 7h post-infection"}, "hSARS-CoV2 [7]": {"tested_on": "hSARS-CoV2", "assay": "Viral genomic replication (RT-qPCR) in Vero81 and TMPRSS2-transduced Vero81 cells", "assay_type": "cell-based, SARS-CoV-2", "method": "Cell culture: Vero81 cells and Vero-81 cells transduced with TMPRSS2 were cultured in Dulbecco’s modified Eagle medium (DMEM) supplemented with 10% fetal bovine serum (FBS) and GlutaMAX™ in a humidified atmosphere of 5% CO2 at 37° C.\nTested compound: solutions of clofoctol were prepared in DMSO at concentrations required to achieve the desired concentrations in the experiment. Solutions were dispensed onto the living cells. The maximum concentration of DMSO was 0.15%.\nCell infection: cells were infected after addition of clofoctol at various concentrations or control solvents. The multiple of infection was 0.25. […]\nRNA dosing: after 6 hours of incubation, total cellular RNA was extracted by using the Nucleospin RNA kit (Macherey-Nagel) as recommended by the manufacturer and SARS-CoV-2 genome were measured by quantitative RT-PCR. […] Primers and probe (WHO protocol) targeting the open reading frame for the E gene were used. […]\nThe effect of clofoctol on Vero81 and TMPRSS2-transduced Vero81 cells infected with hSARS-CoV2 was assessed by adding a range of concentrations of clofoctol, following 1:2,5 dilutions, prior to infection with hSARS-CoV2 at MOI 0.25 for 6 hours. […]\nResults were obtained by dosing viral RNA and the viral load was expressed as the ratio of the viral RNA on the total RNA (RNAt) of the sample. […]"}, "hSARS-CoV2 [8]": {"tested_on": "hSARS-CoV2", "assay": "Cytopathic effect and cell growth in TMPRSS2-transduced Vero81 cells infected with hSARS-CoV2", "assay_type": "cell-based, SARS-CoV-2", "details": "MOI 0.01, 72 hours", "method": "Vero-81 cells were transduced with a lentivirus expressing TMPRSS2. TMPRSS2 was cloned into pTRIP vector, lentivectors were produced by transfection of HEK293T cells with pTRIP-TMPRSS2, phCMV-VSVG and HIV gag-pol with Turbofect™ (ThermoFischer) according to the manufacturer’s instruction. Supernatants containing lentiviral vectors were used to transduce cells. Then cells were used in experiments 72 h after the transduction.\nTested compound: solutions of the clofoctol were prepared in DMSO at concentrations required to achieve the desired concentrations in the experiment. Solutions were dispensed onto the living cells. The maximum concentration of DMSO was 0.15%. […]\nThe effect of clofoctol on TMPRSS2-transduced Vero81 cells infected with hSARS-CoV2 was assessed by adding a range of concentrations of clofoctol, following 1:3 dilutions, prior to infection with hSARS-CoV2 at MOI 0.01 for 72 hours. […]\nas §1\nThe results were obtained by analyzing the number of living cells expressed as the percentage of cell growth improvement relative to a scale defined by normal cell growth (not infected controls) and no cell growth (infected controls). […]"}},
  "note": "“Also recorded” adds a separate entry of the source.",
  "data": [
    {"molecule": "CC(C)(C)CC(C)(C)c1ccc(O)c(Cc2ccc(Cl)cc2Cl)c1", "note": "[clofoctol, 2-(2,4-Dichlorobenzyl)-4-(1,1,3,3-tetramethylbutyl)phenol]", "values": [
      {"measurement": "SARS-CoV-2 infection in mice (lung viral load by titration and RT-qPCR)", "setting": "SARS-CoV-2 [1]", "value": "significantly reduces SARS-CoV-2 infection in mice"},
      {"measurement": "Distribution in lungs (concentration in plasma and lung)", "setting": "[2]", "value": "distributed in lungs at very significant levels"},
      {"measurement": "Factor of reduction of virus titer in the mucus of human bronchial epithelium (TCID50)", "setting": "hSARS-CoV-2; 30 µM", "value": "more than 100"},
      {"measurement": "Viral RNA quantitation (RT-qPCR) in human bronchial epithelia", "setting": "hSARS-CoV-2; not normalized", "value": "decrease of viral RNA quantitation"},
      {"measurement": "Secreted infectious virus (TCID50) in supernatants", "setting": "SARS-CoV-2 [3]", "value": "inhibits the secretion of hSARS-CoV-2 by infected cells; also recorded: SARS-CoV-2 load decreases as the concentration of clofoctol increases"},
      {"measurement": "Cmax", "setting": "[4]", "value": "~250", "unit": "µM"},
      {"measurement": "IC95, concentration reducing 95% of the CPE (percentage of PI-positive nuclei)", "setting": "hSARS-CoV2 [5]", "value": 9.2, "unit": "µM"},
      {"measurement": "EC95, concentration at which 95% of maximum response is observed (cell growth improvement)", "setting": "hSARS-CoV2 [5]; estimated", "value": "~21", "unit": "µM"},
      {"measurement": "SARS-CoV-2 replication (viral RNA by RT-qPCR)", "setting": "SARS-CoV-2 [6]", "value": "inhibits SARS-CoV-2 replication in Calu-3 cells"},
      {"measurement": "Activity against HCoV-229E (luciferase activity, percentage of control)", "setting": "HCoV-229E-Rluc", "value": "active against HCoV-229E"},
      {"measurement": "IC95 of viral load (ratio of viral RNA on total RNA)", "setting": "hSARS-CoV2 [7]; Vero81 and TMPRSS2-transduced Vero81 cells, MOI 0.25, 6 hours", "value": 11, "unit": "µM"},
      {"measurement": "Genomic replication of SARS-CoV-2 (viral RNA by RT-qPCR, normalized to total RNA)", "setting": "hSARS-CoV2 [7]; Vero-81 and Vero-81-TMPRSS2 cells, MOI 0.25, 6 h, increasing concentrations", "value": "inhibits the replication of hSARS-CoV2 in infected cells; also recorded: inhibits the genomic replication of SARS-CoV-2"},
      {"measurement": "IC95 of the CPE (percentage of PI-positive nuclei)", "setting": "hSARS-CoV2 [8]", "value": 8.7, "unit": "µM"},
      {"measurement": "EC95 (cell growth improvement)", "setting": "hSARS-CoV2 [8]; estimated", "value": "~25", "unit": "µM"}
    ]}
  ]
}
